Reference: US20250051338A1, “TYK2 DEGRADERS AND USES THEREOF” (Kymera Therapeutics, Inc., priority 2021, published 2025)

Assays:
Format in all cases: cell-based
[1] = molecular target: T1, TYK2 (Homo sapiens, UniProt P29597); assay: TYK2 degradation MSD assay in OCI-LY10 cells; set-up: endogenous in cells; host or cells: EBV-B cells; settings: 4 to 24 hours incubation, read-out: TYK2 MSD DC50 rating in OCI-LY10
Experimental: (§1) Example 3. TYK2 Degradation MSD Assay in EBV-B, OCI-LY10, and Human PBMC Cells
(§2) Degradation of TYK2 in cells was quantitatively measured using Meso Scale Discovery (MSD) technology. EBV-B, OCI-LY10 or human PBMC cells were seeded in 96-well plates with a density of 0.4 million cells per well in 100 μl fresh media. Compounds were then added to the assay plates with a final top concentration of 1 to 10 μM in a 1:3 dilution series with total of 9 doses. The assay plates were then incubated for 4 to 24 hours at 37° C. under 5% CO2. The assay plates were then centrifuged for 5 minutes, and the cell pellets were treated with 100 μl/well RIPA lysis buffer (Boston Bioproducts, BP-115D) with protease and phosphatase inhibitors (Roche, 05892791001 and 04906837001). To prepare MSD assay plates (MSD, L15XA), the plates were coated with the capture antibody (Santa Cruz Biotechnology, SC-5271) in PBS, at 40 μl/well. The plates were then incubated overnight at 4° C., washed 3 times with 150 μl/well TBST buffer (Cell Signaling Technology, 9997S) and blocked with 150 μl/well blocking buffer (MSD, R93BA-4). Cell lysates were then added to MSD assay plates and the plates were incubated at room temperature for 1 hour. The plates were then washed 3 times with 150 μl/well TBST buffer and 25 μl/well primary detection antibody (Cell Signaling Technology, #9312). The assay plates were then incubated at room temperature for 1 hour, washed 3 times with 150 μl/well TBST buffer, and 25 μl/well secondary detection antibody, SULFO-TAG anti-rabbit antibody (MSD, R32AB-1) were added. The assay plates were then incubated at room temperature for 1 hour, washed 3 times with 150 μl/well TBST buffer, and 150 μl/well MSD reading buffer (MSD, R92TC-2) were added. The plates were then analyzed by an MSD reader. The data was analyzed by GraphPad Prism and the dose dependent TYK2 degradation was fit using the four-parameter inhibitor vs. response nonlinear regression. The DC50 data were measured and categorized into different levels in Table H. The compound with DC50 less than or equal to 1 nM is marked as A, with DC50 more than 1 nM and less than or equal to 10 nM is marked as B, with DC50 more than 10 nM and less than or equal to 100 nM is marked as C, and with DC50 more than 100 nM or not available is marked as D.

[2] = molecular target: T1, TYK2; assay: TYK2 degradation MSD assay in human PBMC cells; set-up: endogenous in cells; host or cells: human PBMC; settings: 4 to 24 hours incubation, read-out: TYK2 MSD DC50 rating in human PBMC
Experimental: as §1, §2

[3] = molecular target: T1, TYK2; assay: TYK2 degradation MSD assay in EBV-B cells; set-up: endogenous in cells; host or cells: EBV-B cells; settings: 4 to 24 hours incubation, read-out: TYK2 MSD DC50 rating in EBV-B
Experimental: as §1, §2

T1 sequence (P29597 whole entry): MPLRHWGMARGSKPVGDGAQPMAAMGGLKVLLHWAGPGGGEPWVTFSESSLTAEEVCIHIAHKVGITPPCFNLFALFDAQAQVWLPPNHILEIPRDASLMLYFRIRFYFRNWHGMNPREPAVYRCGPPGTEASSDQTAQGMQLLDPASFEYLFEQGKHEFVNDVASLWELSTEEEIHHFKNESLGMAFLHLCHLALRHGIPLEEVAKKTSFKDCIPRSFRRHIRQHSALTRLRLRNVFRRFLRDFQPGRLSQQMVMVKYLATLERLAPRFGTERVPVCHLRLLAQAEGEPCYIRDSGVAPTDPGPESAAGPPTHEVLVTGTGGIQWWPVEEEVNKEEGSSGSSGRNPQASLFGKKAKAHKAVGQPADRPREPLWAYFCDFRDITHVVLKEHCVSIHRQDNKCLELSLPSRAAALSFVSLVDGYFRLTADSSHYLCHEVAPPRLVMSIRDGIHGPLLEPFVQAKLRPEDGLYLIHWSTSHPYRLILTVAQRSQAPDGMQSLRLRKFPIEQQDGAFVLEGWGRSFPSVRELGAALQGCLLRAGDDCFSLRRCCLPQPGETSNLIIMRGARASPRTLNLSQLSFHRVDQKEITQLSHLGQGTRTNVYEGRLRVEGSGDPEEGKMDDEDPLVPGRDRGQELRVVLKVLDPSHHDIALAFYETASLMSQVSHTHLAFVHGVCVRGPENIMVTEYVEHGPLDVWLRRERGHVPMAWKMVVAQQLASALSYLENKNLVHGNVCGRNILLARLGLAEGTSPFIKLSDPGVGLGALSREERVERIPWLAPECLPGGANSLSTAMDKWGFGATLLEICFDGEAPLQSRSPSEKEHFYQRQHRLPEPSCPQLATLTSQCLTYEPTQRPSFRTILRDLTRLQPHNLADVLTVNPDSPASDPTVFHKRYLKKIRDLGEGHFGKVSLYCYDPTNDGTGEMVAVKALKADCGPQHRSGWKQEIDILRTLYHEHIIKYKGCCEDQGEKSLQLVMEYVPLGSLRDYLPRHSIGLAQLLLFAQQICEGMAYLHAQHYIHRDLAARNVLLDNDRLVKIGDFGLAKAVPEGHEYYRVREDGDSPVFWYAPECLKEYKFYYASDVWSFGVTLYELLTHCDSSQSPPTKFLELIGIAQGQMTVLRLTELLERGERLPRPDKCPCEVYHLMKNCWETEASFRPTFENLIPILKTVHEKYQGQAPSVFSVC

Row | SMILES | DC50 [1] | DC50 [2] | DC50 [3]
1 | CNc1cc(Nc2cccc(-c3ccc(CN4CCN(c5ccc(-c6ccc7c(c6)n(C)c(=O)n7C6CCC(=O)NC6=O)cc5)CC4)cn3)c2)nn2c(C(=O)NC3CCC3)cnc12 (centres unmarked) [Example K483] | 1 to 10 nM | > 100 nM | > 100 nM
2 | CNc1cc(Nc2cccn(-c3ccc(C(=O)N4CCN(CC#Cc5ccc6c(c5)n(C)c(=O)n6C5CCC(=O)NC5=O)CC4)cn3)c2=O)nn2c(C(=O)N[C@@H]3C[C@@H]3F)cnc12 (some centres unmarked) [Example K417] | > 100 nM | > 100 nM | > 100 nM
3 | CNc1cc(Nc2cccn(-c3cc(C(=O)NCCCCCCCCc4ccc5c(c4)n(C)c(=O)n5C4CCC(=O)NC4=O)ccn3)c2=O)nn2c(C(=O)N[C@@H]3C[C@@H]3F)cnc12 (some centres unmarked) [Example K231] | > 100 nM | < 1 nM | > 100 nM
4 | CNc1cc(Nc2cccn(-c3ccc(C(=O)NCCCCc4ccc5c(c4)n(C)c(=O)n5C4CCC(=O)NC4=O)cn3)c2=O)nn2c(C(=O)NC3CC3)cnc12 (centres unmarked) [Example K322] | > 100 nM | > 100 nM | > 100 nM
5 | CNc1cc(Nc2cccn(-c3ccc(C(=O)NCCCCCCCCc4cncc(N5CCC[C@H](C(=O)Nc6ccc(=O)n(CC(=O)O)c6)C5)c4)cn3)c2=O)nn2c(C(=O)N[C@@H]3C[C@@H]3F)cnc12 [Example K571] | > 100 nM | > 100 nM | > 100 nM
6 | CNc1cc(Nc2cccc(-c3ccc(CN4CCN(c5ccc(-c6ccc7c(c6)n(C)c(=O)n7C6CCC(=O)NC6=O)cc5)CC4)cn3)c2OC)nn2c(C(=O)NC3CC3C)cnc12 (centres unmarked) [Example K542] | 1 to 10 nM | > 100 nM | > 100 nM
7 | CNc1cc(Nc2cccc(-c3ccc(CN4CCN(C(=O)c5ccc(Cl)c(N6CCC(=O)NC6=O)c5)CC4)cn3)c2OC)nn2c(C(=O)N[C@@H]3C[C@@H]3F)cnc12 [Example K489] | > 100 nM | > 100 nM | > 100 nM
8 | CNc1cc(Nc2cccn(-c3ccc(C(=O)N4CCN(CCOc5cccc(-c6ccc7c(c6)n(C)c(=O)n7C6CCC(=O)NC6=O)c5)CC4)cn3)c2=O)nn2c(C(=O)N[C@@H]3C[C@@H]3F)cnc12 (some centres unmarked) [Example K440] | < 1 nM | > 100 nM | > 100 nM
9 | CNc1cc(Nc2cccn(-c3ccc(C(=O)N(C)C4CCN(Cc5cccc6c5n(C)c(=O)n6C5CCC(=O)NC5=O)CC4)cn3)c2=O)nn2c(C(=O)N[C@@H]3C[C@@H]3F)cnc12 (some centres unmarked) [Example K279] | > 100 nM | < 1 nM | > 100 nM
10 | Cn1c(=O)n(C2CCC(=O)NC2=O)c2cccc(N3CCC4(CC3)CN(Cc3ccc(-c5cccc(Nc6ccc7ncc(C(=O)NC8CC8)n7n6)c5)nc3)C4)c21 (centres unmarked) [Example K452] | > 100 nM | > 100 nM | > 100 nM
11 | CNc1cc(-c2cnn(C3CCN(C(=O)NCCCCCCc4ccc5c(c4)n(C)c(=O)n5C4CCC(=O)NC4=O)CC3)c2)nn2c(C(=O)N[C@@H]3C[C@@H]3F)cnc12 (some centres unmarked) [Example K311] | > 100 nM | > 100 nM | > 100 nM
12 | CNc1cc(-c2cnn(C3CCN(C(=O)NCCCCc4ccc5c(c4)n(C)c(=O)n5C4CCC(=O)NC4=O)CC3)c2)nn2c(C(=O)N[C@@H]3C[C@@H]3F)cnc12 (some centres unmarked) [Example K294] | > 100 nM | > 100 nM | > 100 nM
13 | CNc1cc(Nc2cccn(-c3ccc(C(=O)N4CCC(CN5CCC(c6ccc7c(c6)n(C)c(=O)n7C6CCC(=O)NC6=O)CC5)CC4)cn3)c2=O)nn2c(C(=O)N[C@@H]3C[C@@H]3F)cnc12 (some centres unmarked) [Example K411] | < 1 nM | – | > 100 nM
14 | CNc1cc(Nc2cccc(-c3ccc(CN4CCN(c5ccc(-c6ccc7c(c6)n(C)c(=O)n7C6CCC(=O)NC6=O)cc5)CC4)cn3)c2)nn2c(C(=O)N[C@@H]3C[C@@H]3F)cnc12 (some centres unmarked) [Example K511] | – | – | > 100 nM
15 | CNc1cc(Nc2cccc(C(=O)NCCCCc3ccc4c(c3)n(C)c(=O)n4C3CCC(=O)NC3=O)c2)nn2c(C(=O)N[C@@H]3C[C@@H]3F)cnc12 (some centres unmarked) [Example K368] | – | – | > 100 nM
16 | CNc1cc(Nc2cccn(-c3cc(C(=O)NCCOCCOCCOCCOCCOCCOCCc4cccc5c4n(C)c(=O)n5C4CCC(=O)NC4=O)ccn3)c2=O)nn2c(C(=O)N[C@@H]3C[C@@H]3F)cnc12 (some centres unmarked) [Example K246] | – | – | > 100 nM

Next, values leading:

Row | DC50 [1] | DC50 [2] | DC50 [3] | SMILES
17 | > 100 nM | 1 to 10 nM | > 100 nM | CNC(=O)c1cnc(NC(=O)NCCCCCCCCc2ccc3c(c2)n(C)c(=O)n3C2CCC(=O)NC2=O)cc1Nc1cccc(-c2ncc(F)cn2)c1OC (centres unmarked) [Example K187]
18 | > 100 nM | < 1 nM | 1 to 10 nM | CNC(=O)c1cnc(Nc2ccc(C(=O)NCCCCCCCCc3ccc4c(c3)n(C)c(=O)n4C3CCC(=O)NC3=O)cn2)cc1Nc1cccc(-c2ncc(F)cn2)c1OC (centres unmarked) [Example K111]
19 | > 100 nM | 1 to 10 nM | > 100 nM | CNc1cc(-c2cnn(C3CCN(C(=O)NCCCCCCCCc4cccc5c4n(C)c(=O)n5C4CCC(=O)NC4=O)CC3)c2)nn2c(C(=O)N[C@@H]3C[C@@H]3F)cnc12 (some centres unmarked) [Example K313]
20 | > 100 nM | < 1 nM | < 1 nM | CNc1cc(Nc2cccn(-c3ccc(C(=O)N(C)CC4CCN(c5ccc6c(c5)n(C)c(=O)n6C5CCC(=O)NC5=O)CC4)cn3)c2=O)nn2c(C(=O)N[C@@H]3C[C@@H]3F)cnc12 (some centres unmarked) [Example K280]
21 | > 100 nM | > 100 nM | > 100 nM | Cc1cc(C)cc(Nc2cc(NCCCCc3ccc4c(c3)n(C)c(=O)n4C3CCC(=O)NC3=O)c3ncc(C(=O)N[C@@H]4C[C@@H]4F)n3n2)c1 (some centres unmarked) [Example K402]
22 | < 1 nM | > 100 nM | > 100 nM | CNc1cc(Nc2cccc(-c3ccc(CN4CCC(c5ccc(-c6ccc7c(c6)n(C)c(=O)n7C6CCC(=O)NC6=O)cc5)CC4)cn3)c2)nn2c(C(=O)NC3CC3F)cnc12 (centres unmarked) [Example K413]
23 | > 100 nM | > 100 nM | 1 to 10 nM | CNc1cc(Nc2cccn(C3CCN(C(=O)N(C)CC4CCN(Cc5cccc6c5n(C)c(=O)n6C5CCC(=O)NC5=O)CC4)CC3)c2=O)nn2c(C(=O)N[C@@H]3C[C@@H]3F)cnc12 (some centres unmarked) [Example K397]
24 | > 100 nM | > 100 nM | > 100 nM | CNc1cc(Nc2cccn(-c3ccc(C(=O)N4CCC5(CN(CC#Cc6ccc7c(c6)n(C)c(=O)n7C6CCC(=O)NC6=O)C5)C4)cn3)c2=O)nn2c(C(=O)N[C@@H]3C[C@@H]3F)cnc12 (some centres unmarked) [Example K416]
25 | < 1 nM | > 100 nM | > 100 nM | CNc1cc(Nc2cccn(-c3ccc(C(=O)N(C)C4CCC(N5CCN(c6ccc7c(c6)n(C)c(=O)n7C6CCC(=O)NC6=O)CC5)CC4)cn3)c2=O)nn2c(C(=O)N[C@@H]3C[C@@H]3F)cnc12 (some centres unmarked) [Example K427]
26 | > 100 nM | > 100 nM | > 100 nM | CNc1cc(-c2ccc(N3CCC(CN4CC5(CCN(c6cccc7c6n(C)c(=O)n7C6CCC(=O)NC6=O)CC5)C4)CC3)cc2)nn2c(C(=O)N[C@@H]3C[C@@H]3F)cnc12 (mixture of isomers) [Example K533]
27 | > 100 nM | > 100 nM | 1 to 10 nM | CCNC(=O)c1cnc(Nc2ccc(C(=O)N(C)C3CCN(c4cccc5c4n(C)c(=O)n5C4CCC(=O)NC4=O)CC3)cn2)cc1Nc1cccc(-c2ncc(F)cn2)c1OC (centres unmarked) [Example K169]
28 | > 100 nM | > 100 nM | < 1 nM | CNC(=O)c1cnc(Nc2ccc(CN(C)CCCOC3CC(c4cccc5c4n(C)c(=O)n5C4CCC(=O)NC4=O)C3)cn2)cc1Nc1cccc(-c2ncc(F)cn2)c1OC (centres unmarked) [Example K158]
29 | > 100 nM | > 100 nM | < 1 nM | CNc1cc(Nc2cccn(-c3ccc(C(=O)N4CCN(CC5CC(c6ccc(-c7ccc8c(c7)n(C)c(=O)n8C7CCC(=O)NC7=O)cc6)C5)CC4)cn3)c2=O)nn2c(C(=O)N[C@@H]3C[C@@H]3F)cnc12 (some centres unmarked) [Example K373]
30 | < 1 nM | > 100 nM | < 1 nM | CNc1cc(Nc2cccc(-c3ccc(CN4CCN(c5ccc(-c6ccc7c(c6)n(C)c(=O)n7C6CCC(=O)NC6=O)cc5)CC4)cn3)c2OC)nn2c(C(=O)N[C@@H]3C[C@@H]3F)cnc12 (some centres unmarked) [Example K479]
